According to patent US8796268B2, “Heteroaryls and uses thereof” (Millennium Pharmaceuticals, Inc., priority 2010, dated 2014):
Structures can show the parent of a compound that is named as a salt.

What was measured:
Assay type in all cases: biochemical
Human PI3K gamma = molecular target: T1, Human PI3K gamma (Homo sapiens, UniProt P48736); assay: Human PI3K gamma enzyme assay (HTRF); conditions: at a 1.0 μM concentration; read-out: PI3Kγ Percent Inhibition
T1 construct: His (N); host or cells: SF9 insect cells (baculovirus)
T1 sequence (P48736 whole entry): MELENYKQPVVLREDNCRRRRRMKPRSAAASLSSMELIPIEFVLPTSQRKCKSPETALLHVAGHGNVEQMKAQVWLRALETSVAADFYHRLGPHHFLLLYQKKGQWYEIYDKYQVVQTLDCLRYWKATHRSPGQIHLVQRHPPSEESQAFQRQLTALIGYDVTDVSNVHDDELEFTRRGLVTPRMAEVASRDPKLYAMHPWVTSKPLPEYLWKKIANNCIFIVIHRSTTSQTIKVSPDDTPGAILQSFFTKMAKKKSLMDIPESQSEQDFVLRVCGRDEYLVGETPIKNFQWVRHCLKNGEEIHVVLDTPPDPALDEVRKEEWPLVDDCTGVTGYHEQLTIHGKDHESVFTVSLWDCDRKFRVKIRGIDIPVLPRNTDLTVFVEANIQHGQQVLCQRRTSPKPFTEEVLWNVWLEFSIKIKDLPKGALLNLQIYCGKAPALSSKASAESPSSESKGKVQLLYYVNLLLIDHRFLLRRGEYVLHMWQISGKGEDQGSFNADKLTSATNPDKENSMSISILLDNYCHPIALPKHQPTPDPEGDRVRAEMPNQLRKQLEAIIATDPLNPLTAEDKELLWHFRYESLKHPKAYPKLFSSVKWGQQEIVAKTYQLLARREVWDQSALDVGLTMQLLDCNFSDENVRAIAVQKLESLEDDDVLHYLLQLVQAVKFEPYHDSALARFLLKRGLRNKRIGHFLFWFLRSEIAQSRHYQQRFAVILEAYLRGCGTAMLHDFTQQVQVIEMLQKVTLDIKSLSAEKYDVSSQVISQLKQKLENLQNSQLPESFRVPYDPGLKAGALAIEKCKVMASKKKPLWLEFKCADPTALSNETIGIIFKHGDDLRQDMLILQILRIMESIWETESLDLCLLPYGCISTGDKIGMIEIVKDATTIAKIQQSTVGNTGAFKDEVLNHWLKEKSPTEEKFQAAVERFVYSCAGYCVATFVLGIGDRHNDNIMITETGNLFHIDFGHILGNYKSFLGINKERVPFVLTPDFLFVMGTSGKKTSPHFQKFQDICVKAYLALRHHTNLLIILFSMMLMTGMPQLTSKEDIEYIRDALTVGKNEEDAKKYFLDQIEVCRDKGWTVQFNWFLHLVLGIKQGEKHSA
Method in brief: (§1)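 Compounds were mixed with 25 uM ATP, then with 3.5 uM di-C8 PI(4,5)P2 and His-tagged PI3K isoform (β 5.25 nM, δ 0.75 nM, γ 5 nM) at pH 7.00. After 30 min at room temperature, EDTA stopped the reaction and PIP3 was measured by HTRF over 1 h.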

Human PI3K alpha = molecular target: T2, Human PI3K alpha (Homo sapiens, UniProt P42336); assay: Human PI3K alpha enzyme assay (HTRF); conditions: at a 1.1 μM concentration; read-out: PI3Kα Percent Inhibition
T2 construct: His (N); host or cells: SF9 insect cells (baculovirus)
T2 sequence (P42336 whole entry): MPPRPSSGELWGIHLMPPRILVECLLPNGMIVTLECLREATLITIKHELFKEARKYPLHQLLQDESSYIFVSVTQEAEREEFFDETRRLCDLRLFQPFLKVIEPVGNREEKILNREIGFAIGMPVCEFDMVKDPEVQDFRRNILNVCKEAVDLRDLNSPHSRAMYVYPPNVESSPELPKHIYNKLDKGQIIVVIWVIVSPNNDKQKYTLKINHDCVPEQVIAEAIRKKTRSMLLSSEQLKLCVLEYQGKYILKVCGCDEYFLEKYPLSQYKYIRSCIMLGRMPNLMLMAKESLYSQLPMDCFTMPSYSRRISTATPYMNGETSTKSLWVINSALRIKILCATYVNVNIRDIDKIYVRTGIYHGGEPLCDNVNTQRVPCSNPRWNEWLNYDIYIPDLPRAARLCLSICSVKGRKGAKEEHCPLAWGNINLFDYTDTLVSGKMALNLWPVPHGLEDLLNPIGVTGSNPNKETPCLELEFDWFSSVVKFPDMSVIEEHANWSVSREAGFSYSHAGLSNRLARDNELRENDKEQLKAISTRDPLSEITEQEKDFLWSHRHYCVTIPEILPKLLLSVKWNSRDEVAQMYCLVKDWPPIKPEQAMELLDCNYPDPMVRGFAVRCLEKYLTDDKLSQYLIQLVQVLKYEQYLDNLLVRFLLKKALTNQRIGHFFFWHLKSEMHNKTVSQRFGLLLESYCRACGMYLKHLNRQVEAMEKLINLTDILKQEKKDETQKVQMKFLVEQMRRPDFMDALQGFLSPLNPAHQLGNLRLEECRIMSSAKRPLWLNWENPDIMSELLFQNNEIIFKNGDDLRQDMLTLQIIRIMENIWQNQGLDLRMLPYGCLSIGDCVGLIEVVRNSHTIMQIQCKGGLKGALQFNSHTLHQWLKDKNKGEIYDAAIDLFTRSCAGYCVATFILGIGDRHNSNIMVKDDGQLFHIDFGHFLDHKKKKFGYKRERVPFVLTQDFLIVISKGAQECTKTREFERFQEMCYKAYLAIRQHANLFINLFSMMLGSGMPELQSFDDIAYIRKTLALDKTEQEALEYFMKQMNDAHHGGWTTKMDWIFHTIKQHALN
T2 sequence (P27986 whole entry partner): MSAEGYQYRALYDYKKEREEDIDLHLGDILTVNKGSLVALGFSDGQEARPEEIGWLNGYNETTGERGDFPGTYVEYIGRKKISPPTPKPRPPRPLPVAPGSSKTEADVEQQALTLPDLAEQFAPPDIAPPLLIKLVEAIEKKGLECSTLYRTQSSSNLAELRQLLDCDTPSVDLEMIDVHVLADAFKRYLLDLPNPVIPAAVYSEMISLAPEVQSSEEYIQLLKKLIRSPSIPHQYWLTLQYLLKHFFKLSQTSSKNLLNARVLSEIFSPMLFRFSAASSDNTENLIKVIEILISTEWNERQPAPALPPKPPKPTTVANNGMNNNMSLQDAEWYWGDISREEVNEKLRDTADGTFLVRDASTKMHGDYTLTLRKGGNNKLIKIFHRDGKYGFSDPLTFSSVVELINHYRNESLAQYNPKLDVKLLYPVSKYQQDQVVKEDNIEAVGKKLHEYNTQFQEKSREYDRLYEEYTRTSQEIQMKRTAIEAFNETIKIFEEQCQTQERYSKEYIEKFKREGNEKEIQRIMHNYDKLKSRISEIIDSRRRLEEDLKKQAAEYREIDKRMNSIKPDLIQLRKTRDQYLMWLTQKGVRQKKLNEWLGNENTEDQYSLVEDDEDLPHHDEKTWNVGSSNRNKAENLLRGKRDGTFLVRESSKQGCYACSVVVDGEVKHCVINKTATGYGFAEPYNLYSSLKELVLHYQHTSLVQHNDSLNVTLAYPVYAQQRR

Human VPS34 = molecular target: T3, Human VPS34 (Homo sapiens, UniProt Q8NEB9); assay: Human VPS34 enzyme assay (Adapta Universal Kinase Assay); conditions: at a 1.0 μM concentration; read-out: VPS34 Percent Inhibition
T3 construct: GST (with thrombin site, pDEST20-Thrombin) (N); host or cells: SF9 insect cells (baculovirus)
Description: The catalytic subunits of PI3Ks are cloned into either pDEST8(p110 alpha) or pDEST10(p110beta, p110delta, and p110gamma) as N-terminal His tagged fusion proteins using the Gateway system (Invitrogen, catalog#11804-010 for pDEST8 and 11806-015 for pDEST10). The sequences are verified before recombinant protein expression using the Baculovirus Expression System with Gateway® Technology. The accession numbers for the subunits are as follows: • p110 alpha (GB:U79143) • p110beta (GB: S67334) • p110delta (GB: U86453) • p110gamma (GB: X83368) • The regulatory subunits of PI3Ks are cloned into pDEST8 as un-tagged protein using the Gateway system (Catalog#11804-010). The sequences are verified before recombinant protein expression using the Baculovirus Expression System with Gateway® Technology. The accession numbers for the subunits are as following: • p85 alpha (GB: BC030815) • p101(GB: AB028925) • VPS34 (accession number GB:BC033004) is cloned into pDEST20—Thombin as N-terminal GST tagged fusion proteins using the Gateway system (Invitrogen, catalog#11804-013). The sequences are verified before recombinant protein expression using the Baculovirus Expression System with Gateway® Technology.
For expression VPS34 was infected at 1MOI in SF9 cells and harvested 72 hours post infection.
For purification, VPS34 is purified by Glutathione Sepharose 4 Fast Flow (GE Healthcare #17-5132-03) followed by HiTrap Q (GE Healthcare #17-1153-01).
3) VPS34 is assayed using Adapta™ Universal Kinase Assay Kit (Invitrogen).
4) Human VPS34 enzyme assay method
100 nL compounds in DMSO are added to wells of a 384 well microtitre plate (Greiner 780076). At room temperature: 5 ul VPS34 reaction buffer (Invitrogen Assay Buffer Q (diluted 1 in 5 with nanopure water) plus 2 mM DTT and 2 mM MnCl2) containing ATP (20 uM, Promega) and 200 uM PI—PS substrate (Invitrogen PV5122) is added followed immediately by 5 ul VPS34 reaction buffer (as above) containing VPS34 (5 nM, Millennium Protein Sciences Group) and the mixture is incubated with shaking at room temperature for 1 hour. Then 5 ul VPS34 stop-detect mix (as per Invitrogen Adapta Assay kit (PV5009) instructions (contains kinase quench buffer, TR-FRET buffer, Adapta Eu anti-ADP antibody and Alexa Fluor 647 ADP tracer)) is added to quench the reaction. The plates are then incubated for 30 minutes at room temperature with shaking and then read on a BMG PheraStar Plus reader.
For the assay methods described above, test compound percent inhibition, at various concentrations, is calculated relative to control (DMSO and EDTA) treated samples. Compound concentration versus percent inhibition curves are fitted to generate IC50 values. One skilled in the art will appreciate that the values generated either as percentage inhibition at a single concentration or IC50 values are subject to experimental variation.

Human PI3K beta = molecular target: T4, Human PI3K beta (Homo sapiens, UniProt P42338); assay: Human PI3K beta enzyme assay (HTRF); conditions: at a 1.1 μM concentration; read-out: PI3β Percent Inhibition
T4 construct: His (N); host or cells: SF9 insect cells (baculovirus)
T4 sequence (P42338 whole entry): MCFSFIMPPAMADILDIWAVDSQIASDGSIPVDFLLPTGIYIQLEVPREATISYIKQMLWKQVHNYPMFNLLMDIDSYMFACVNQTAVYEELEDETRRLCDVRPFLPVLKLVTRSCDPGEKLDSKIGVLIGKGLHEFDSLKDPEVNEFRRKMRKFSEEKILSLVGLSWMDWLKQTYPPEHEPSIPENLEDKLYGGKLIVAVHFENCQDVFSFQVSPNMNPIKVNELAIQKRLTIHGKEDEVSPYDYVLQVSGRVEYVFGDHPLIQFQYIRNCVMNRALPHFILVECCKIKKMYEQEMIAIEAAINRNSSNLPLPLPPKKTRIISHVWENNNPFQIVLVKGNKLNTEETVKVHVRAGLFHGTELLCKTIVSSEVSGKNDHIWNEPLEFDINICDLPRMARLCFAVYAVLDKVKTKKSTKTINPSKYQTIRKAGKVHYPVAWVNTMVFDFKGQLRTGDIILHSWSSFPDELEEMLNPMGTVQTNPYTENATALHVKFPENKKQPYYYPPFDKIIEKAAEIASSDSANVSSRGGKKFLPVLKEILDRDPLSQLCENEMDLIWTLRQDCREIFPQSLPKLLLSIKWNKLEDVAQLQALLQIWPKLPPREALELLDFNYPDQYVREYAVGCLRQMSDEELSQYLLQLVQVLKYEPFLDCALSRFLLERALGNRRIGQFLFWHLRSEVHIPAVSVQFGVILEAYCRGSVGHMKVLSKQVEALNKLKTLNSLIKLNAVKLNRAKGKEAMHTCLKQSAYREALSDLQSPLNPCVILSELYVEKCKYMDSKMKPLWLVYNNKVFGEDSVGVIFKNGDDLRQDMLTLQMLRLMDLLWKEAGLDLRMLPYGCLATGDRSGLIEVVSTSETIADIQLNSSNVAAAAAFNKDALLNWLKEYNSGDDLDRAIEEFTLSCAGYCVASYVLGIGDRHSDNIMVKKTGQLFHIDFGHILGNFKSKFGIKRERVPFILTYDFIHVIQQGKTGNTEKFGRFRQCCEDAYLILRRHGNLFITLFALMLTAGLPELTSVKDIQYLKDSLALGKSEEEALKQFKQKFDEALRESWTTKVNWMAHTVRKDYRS
T4 sequence (P27986 whole entry partner): as the sequence (P27986 whole entry partner) above
Method in brief: as §1

Human PI3K delta = molecular target: T5, Human PI3K delta (Homo sapiens, UniProt O00329); assay: Human PI3K delta enzyme assay (HTRF); conditions: at a 1.0 μM concentration; read-out: PI3Kδ Percent Inhibition
T5 construct: His (N); host or cells: SF9 insect cells (baculovirus)
T5 sequence (O00329 whole entry): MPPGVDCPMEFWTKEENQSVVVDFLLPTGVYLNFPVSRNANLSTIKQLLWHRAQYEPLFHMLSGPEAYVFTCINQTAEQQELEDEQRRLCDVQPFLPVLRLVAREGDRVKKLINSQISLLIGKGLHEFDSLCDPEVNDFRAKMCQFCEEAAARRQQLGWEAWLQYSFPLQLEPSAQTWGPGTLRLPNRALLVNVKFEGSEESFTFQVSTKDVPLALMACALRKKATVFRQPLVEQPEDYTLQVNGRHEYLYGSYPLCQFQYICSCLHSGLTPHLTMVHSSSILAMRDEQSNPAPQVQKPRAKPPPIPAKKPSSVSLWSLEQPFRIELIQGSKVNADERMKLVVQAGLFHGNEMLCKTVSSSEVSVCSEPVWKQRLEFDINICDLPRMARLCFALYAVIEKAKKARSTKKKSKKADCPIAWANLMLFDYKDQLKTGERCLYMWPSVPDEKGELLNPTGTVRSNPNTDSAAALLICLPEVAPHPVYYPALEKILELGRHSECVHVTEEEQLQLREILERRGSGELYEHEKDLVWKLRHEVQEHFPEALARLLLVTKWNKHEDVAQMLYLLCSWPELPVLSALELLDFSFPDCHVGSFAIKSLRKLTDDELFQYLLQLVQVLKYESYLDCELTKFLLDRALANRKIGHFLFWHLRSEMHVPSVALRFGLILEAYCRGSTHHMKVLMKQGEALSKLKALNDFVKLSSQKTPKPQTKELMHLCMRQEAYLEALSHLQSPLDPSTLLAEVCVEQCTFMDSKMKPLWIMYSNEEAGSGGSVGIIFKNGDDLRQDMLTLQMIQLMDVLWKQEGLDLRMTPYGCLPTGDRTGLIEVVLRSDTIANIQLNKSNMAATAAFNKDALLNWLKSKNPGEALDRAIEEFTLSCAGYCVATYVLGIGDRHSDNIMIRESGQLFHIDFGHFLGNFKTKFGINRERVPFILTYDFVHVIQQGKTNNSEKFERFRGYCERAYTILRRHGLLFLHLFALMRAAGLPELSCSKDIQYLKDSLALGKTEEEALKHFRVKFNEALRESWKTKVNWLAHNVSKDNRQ
T5 sequence (P27986 whole entry partner): as the sequence (P27986 whole entry partner) above
Method in brief: as §1

Row | SMILES | inhibition at 1 µM (Human PI3K gamma) [%] | inhibition at 1.1 µM (Human PI3K alpha) [%] | inhibition at 1 µM (Human VPS34) [%] | inhibition at 1.1 µM (Human PI3K beta) [%] | inhibition at 1 µM (Human PI3K delta) [%]
1 | N#Cc1c(N2CCOCC2)sc(C(=O)O)c1Cc1ccc(Cl)cc1Cl [Compound 96] | 36.2 | 58 | 47.8 | 109 | 96
2 | N#Cc1c(N2CCOCC2)sc(C(=O)O)c1Cc1ccc(F)cc1 [Compound 97] | 17.8 | 53 | 45 | 101 | 89.8
3 | O=C(O)c1sc(N2CCOCC2)nc1Cc1ccc2ccccc2c1 [Compound 98] | 67.6 | 58 | 68.9 | 111 | 108
4 | O=C(O)c1sc(N2CCOCC2)nc1Cc1ccc(F)cc1Cl [Compound 99] | 6.4 | 12 | 46.7 | 72 | 55.4
5 | O=C(O)c1sc(C2=CCOCC2)nc1Cc1ccc(Cl)cc1 [Compound 100, 4-(4-chlorobenzyl)-2-(3,6-dihydro-2H-pyran-4-yl)-1,3-thiazole-5-carboxylic acid] | 13.2 | 20 | 36.6 | 98 | 65.5
6 | COc1ccc(Cc2nc(N3CCOCC3)sc2C(=O)O)cc1 [Compound 103] | 6.4 | 2 | 7.2 | 71 | 38.6
7 | O=C(O)c1sc(N2CCOCC2)nc1Cc1ccc(Cl)cc1Cl [Compound 104] | 28.8 | 26 | 63.2 | 109 | 93
8 | COc1ccc(Cc2c(C(=O)O)sc(N3CCOCC3)c2C#N)cc1 [Compound 105] | 9.8 | 21 | 22.6 | 98 | 51.2
9 | N#Cc1c(N2CCOCC2)sc(C(=O)O)c1Cc1ccc(Br)cc1 [Compound 106] | 51.8 | 58 | 34.4 | 103 | 88.8
10 | COc1ccc(Cc2c(C(=O)O)sc(N3CCOCC3)c2C#N)cc1Cl [Compound 108] | 38.1 | 44 | 62.4 | 100 | 99.6
11 | O=C(O)c1sc(N2CCOCC2)nc1Cc1ccc(OC(F)(F)F)cc1 [Compound 109] | 3.9 | 6 | 24 | 76 | 35.4
12 | O=C(O)c1sc(N2CCOCC2)nc1Cc1ccc(C(F)(F)F)cc1 [Compound 111] | 6.9 | 7 | 46.8 | 77 | 60.5
13 | N#Cc1c(N2CCOCC2)sc(C(=O)O)c1Cc1ccc2ccccc2c1 [Compound 112] | 69 | 95 | 37.8 | 110 | 114
14 | N#Cc1c(N2CCOCC2)sc(C(=O)O)c1C(N)c1ccc(Cl)cc1 (centres unmarked) [Compound 113, 3-[amino(4-chlorophenyl)methyl]-4-cyano-5-(morpholin-4-yl)thiophene-2-carboxylic acid hydrochloride] | 32.5 | 25 | 18.1 | 100 | 78.8
15 | O=C(O)c1sc(N2CCOCC2)nc1Cc1ccc(Cl)c(Cl)c1 [Compound 114] | 56.9 | 40 | 131 | 106 | 113
16 | N#Cc1ccc(Cc2c(C(=O)O)sc(N3CCOCC3)c2C#N)cc1 [Compound 115] | 12 | 45 | 39.7 | 97 | 63
17 | N#Cc1c(N2CCOCC2)sc(C(=O)O)c1Cc1ccc(Cl)cc1 [Compound 116] | 36.7 | 46 | 54.2 | 98 | 83
18 | COc1ccc(Cc2c(C(=O)O)sc(N3CCOCC3)c2C#N)c(Cl)c1 [Compound 117] | 14.7 | 48 | 28.6 | 94 | 78.5
19 | O=C(O)c1sc(N2CCOCC2)nc1Cc1ccc(Cl)c(F)c1 [Compound 118, 4-(4-chloro-3-fluorobenzyl)-2-morpholin-4-yl-1,3-thiazole-5-carboxylic acid] | 27.5 | 28 | 68.2 | 104 | 89.3
20 | O=C(O)c1sc(N2CCOCC2)nc1Cc1ccc(F)cc1 [Compound 119] | 7.6 | 9 | 19.5 | 88 | 62.6
21 | COc1ccc(Cc2nc(N3CCOCC3)sc2C(=O)O)c(Cl)c1 [Compound 120] | 11 | 18 | 38.3 | 97 | 77
22 | CC(c1ccc(Cl)cc1)c1nc(N2CCOCC2)sc1C(=O)O (centres unmarked) [Compound 121, 4-[1-(4-chlorophenyl)ethyl]-2-(morpholin-4-yl)-1,3-thiazole-5-carboxylic acid] | 7.3 | 11 | 64.8 | 59 | 77.3
23 | COc1cc(Cc2c(C(=O)O)sc(N3CCOCC3)c2C#N)ccc1Cl [Compound 122] | 49.6 | 49 | 55.2 | 106 | 96.2
24 | N#Cc1c(N2CCOCC2)sc(C(=O)O)c1Cc1ccc(Cl)cc1F [Compound 123] | 36.6 | 64 | 45.1 | 105 | 96.8
25 | N#Cc1c(N2CCOCC2)sc(C(=O)O)c1Cc1ccc(Cl)c(Cl)c1 [Compound 124] | 74.2 | 79 | 78.8 | 109 | 112
26 | COc1cc(Cl)ccc1Cc1c(C(=O)O)sc(N2CCOCC2)c1C#N [Compound 125] | 25.9 | 46 | 37.1 | 99 | 85.1
27 | N#Cc1c(N2CCOCC2)sc(C(=O)O)c1Cc1c(F)cc(Cl)cc1F [Compound 126] | 37.6 | 42 | 44 | 103 | 100
28 | COc1cc(Cc2c(C(=O)O)sc(N3CCOCC3)c2C#N)c(F)cc1Cl [Compound 127] | 55 | 40 | 33.7 | 110 | 100
